Results as given in patent US20080070917A1, “METHODS FOR ADMINISTERING LEVOSIMENDAN” (priority 2005, published 2008).
Like-named read-outs stand apart in the source and are kept apart here.

Tests used:
[1] = tested on: subjects hospitalized with acute decompensation of heart failure; assay: Phase 3, double-blind, placebo-controlled study in acute decompensation of heart failure (Example 5); format: in vivo, human
Protocol: This was a Phase 3, double-blind, placebo-controlled, parallel-group study in subjects hospitalized with a primary or secondary admitting diagnosis of acute decompensation of heart failure. The treatment period was up to 24 hours for each subject with at least 90 days follow-up after the start of the study drug infusion. All baseline medications (including use of beta-blockers and other medications) were recorded for each patient. The study evaluated hospitalized subjects (n=600) with a primary or secondary admitting diagnosis of worsening heart failure, with symptoms at rest despite treatment with IV diuretic therapy. […] Infusion rates for background therapy of continuous IV diuretics, inotropes and vasodilators had to have been unchanged for at least two hours prior to the baseline evaluation. Left ventricular ejection fraction (EF) was required to be less than or equal to 35% as assessed within the previous 12 months. Subjects were randomized to either levosimendan (n=299) or placebo (n=301) in addition to standard-of-care. Levosimendan treatment was initiated with a total loading dose of […] administered over 10 minutes (6 mg/kg for subjects on concomitant IV vasodilators or inotropes at the start of the study drug infusion) followed by a continuous infusion of […] for the following 50 minutes. If the dose was well tolerated, the infusion rate was increased to 0.2 mg/kg/min for a further 23 hours. If the higher dose was not well tolerated it was reduced to […] and then further to 0.05 mg/kg/min if required. On completion of 24 hours the infusion is turned off abruptly.
The primary objective of this study was to compare the efficacy between levosimendan and placebo treatments using the clinical composite endpoint (CCE) incorporating a subject reported PGA at 6 hours, 24 hours and Day 5, combined with clinical criteria for worsening heart failure through 5 days after the start of study drug infusion. In contrast to REVIVE I, the was CCE included a PGA at 6 hours as part of the primary endpoint and diuretics at any time during the 5 day assessment period were included as rescue therapy.
Episodes of worsening heart failure treated with a rescue therapy were collected during the initial hospitalization until Day 5 or discharge whichever was later. Safety parameters such as adverse events (AEs), HR, […] (BP), routine laboratory tests, and ECG were monitored frequently up to 31 days, with hospitalization and mortality extended to 90 days after start of study drug infusion. Survival was monitored for all randomized subjects from Day 90 until the last subject underwent the final scheduled visit.

CHF patients = assay: PK-PD meta-analysis (NONMEM, Emax model) of eight studies in CHF patients; format: in vivo, human; conditions: for EC50: Homo sapiens, effective concentration (composite of levosimendan, OR-1855, OR-1896)
Protocol: Data from eight studies (Studies 300102, 300103, 300105, 3001022, 3001024, 3001040, 3001058 (Group 1 and 2) and 3001058 (Group 4)) (335 CHF patients) were combined to generate the PK-PD dataset. Dose regimens included infusions of various doses (0.25-70.6 mg) and infusion durations (5 min-7 days), with or without an initial loading dose. In addition to plasma concentration-time data the PD variables utilized in the PK-PD evaluation were PCWP, CI, HR, SBP, and DBP.
Population PK models were built using a non-linear mixed-effect population modelling approach with the NONMEM software. The sequence of modelling was such that levosimendan PK was modelled first. Then the levosimendan portion of the full PK model was fixed, and individual PK parameters were carried forward in order to simultaneously model the metabolites PK. In the PK model it was assumed that levosimendan is fully metabolized to OR-1855, which is further metabolized to OR-1896. A gut compartment with first-order input from the levosimendan compartment and first-order output to the OR 1855 compartment was incorporated to account for the considerable delay between levosimendan elimination and metabolite appearance. This delay represents transport of levosimendan from plasma to gut and further transit to colon, metabolism of levosimendan to OR-1855 in the colon, and the subsequent absorption of OR-1855 from the colon. Elimination of the metabolites and inter-conversion between the two metabolites were modelled as first-order processes (See, FIG. 1). A mixture model allowing different inter-conversion rates for slow and rapid acetylators was beneficial in describing the data.
Covariates (fixed effects) such as demographic characteristics and patient attributes, for e.g. ejection fraction (EF), New York Heart Association classification (NYHA), serum bilirubin, and creatinine clearance etc. were tested individually in a stepwise method. The intra-subject effects or residual error was modelled as additive, proportional (constant coefficient of variation) or combination of the two for the PK model. The inter-subject effects were modelled as exponential error model.
The full PK models for levosimendan and its metabolites were fixed for the PD modelling. For each individual, plasma concentrations were calculated using the post-hoc PK parameter estimates for that individual. A maximal drug effect (Emax) model described by the following general equation was used to describe the relation between the estimated concentrations of drug and metabolites, and effect. E=Emax*Ceff/(EC50+Ceff) • Where: Ceff is the apparent effective concentration in the hypothetical effect compartment that may be a composite of drug and metabolite concentrations; EC50 is the effective concentration required to achieve 50% of Emax.
The equilibration rate constant (ke0) controls the time delay between the time courses of levosimendan concentration in the central compartment (Cp) and levosimendan concentration in the effect compartment (Clevo), and is expressed as dClevo/dT=ke0·(Cp−Clevo).
The contributions of the drug and the metabolites to the PD effects were modeled using a competitive agonist model that assumed same efficacy (Emax), but different potencies (EC50) for different compounds. A potency factor (RP) accounted for differences in potency and protein binding relative to levosimendan. […] Ceff=Clevo+RP1·COR-1855+RP2·COR-1896
Where RP1 and RP2 are the potencies of OR-1855 and OR-1896 relative to levosimendan, respectively.
The drug response was modelled as the absolute change from baseline and as the fractional change from baseline. The non-drug response was modelled either as a time dependent function or as an instantaneous response based on the following equations.
Where SSS is the maximum non-drug-related response. The exponent “a” represents the rate of onset of the non-drug response over time. […]

[2] = tested on: patients with New York Heart Association functional class II to III heart failure; assay: Double-blind, placebo-controlled study of a 24-hour levosimendan infusion in heart failure patients; format: in vivo, human
Protocol: A double-blind, placebo-controlled, parallel group, single center study in patients with New York Heart Association functional class II to III heart failure was conducted. Patients were randomised in 1:1 ratio to receive either levosimendan or placebo. Study drug administration was initiated with a loading dose of 12 μg/kg of levosimendan or placebo delivered over 10 minutes. This was followed by a continuous infusion of 0.1 μg/kg/min for 50 minutes. If the dose was well tolerated the infusion rate was increased to 0.2 μg/kg/min for a further 23 hours. After the study drug was started, the hemodynamic assessments were repeated at 30 minutes, at two and six hours. The non-invasive hemodynamic assessments were repeated at 24-hours. Follow-up visits took place at 2, 3, 5, 7, 9 and 14 days from the beginning of the study. On these visits echocardiographic measurements were performed and blood pressure and heart rate were measured.
An Acuson Sequoia ultrasound system with 2.5-3.75 MHz probes was used for the Doppler echocardiographic measurements. Blood flow velocity curves were recorded at a sweep speed of 100 mm/s. Left ventricular ejection fraction was assessed by two-dimensional apical two- and four-chamber views with use of modified Simpson rule. Mitral flow velocity was assessed by pulsed wave Doppler from the apical four-chamber view by placing a 3-mm sample volume between the tip of the mitral leaflets in diastole. The following measurements were made over five consecutive cycles: maximal early and maximal late diastolic velocity and their ratio, duration of the late diastolic velocity wave, deceleration time and deceleration rate of early diastolic velocity. Peak velocities were defined as the highest point of the spectrum.
Blood samples (4 ml) for natriuretic peptide (NT-proANP, NT-proBNP) measurements were taken into pre-cooled EDTA tubes. Samples were taken at baseline (0-sample) and on the first study day 30 min, 2 h, 6h and 24 h after the start of the infusion and in the mornings of days 2, 3, 5, 7, 9 and 14 after the start of the study drug infusion.

Unbound plasma fraction = format: in vitro ADME

## C[C@@H]1CC(=O)NN=C1c1ccc(NN=C(C#N)C#N)cc1 [levosimendan, (−)-enantiomer of [[4-(1,4,5,6-tetrahydro-4-methyl-6-oxo-3-pyridazinyl)phenyl]hydrazono]propanedinitrile]
[1]; at 6 hours (91/299), placebo/SOC 25.2%
  Proportion of patients reporting moderate to marked improvement in dyspnea: 30.4%
[1]; beta-blocked patients, over the first 5 days, p=0.001
  Improvement in self assessment (PGA) compared to placebo/SOC: significantly greater improvement
[1]; over the first 5 days, p=0.018
  Improvement in self assessment (dyspnea) compared to placebo/SOC: significantly greater improvement
[1]; overall population, at 6 hours (85/299), placebo/SOC 23.9%
  Proportion of patients reporting moderate to marked improvement in PGA: 28.4%
[1]; overall population, over 5 days, p=0.002
  Improvement in PGA compared to placebo/SOC: significantly greater improvement
[1]; patients not receiving beta-blocker therapy (n=96)
  Difference in PGA improvement compared to placebo/SOC: not statistically significant
[1]; patients not receiving beta-blocker therapy, first 5 days
  Difference in dyspnea improvement between treatment groups: not statistically significant
[1]; patients receiving a beta-blocker at baseline, at 6 hours
  Proportion reporting moderate to marked improvements in dyspnea compared to placebo/SOC: greater proportion
[1]; patients receiving a beta-blocker at baseline, at 6 hours, placebo/SOC 34%
  Proportion of patients reporting moderate to marked improvements in PGA: 44%
[1]; patients receiving beta-blockers, over the first 5 days, p=0.0016
  Improvement in dyspnea compared to placebo/SOC: significantly greater improvement
[1]; versus placebo
  Other secondary endpoints, except 90-day mortality: trended in favor of levosimendan but did not reach statistical significance
CHF patients; read-out: Post-hoc Mean EC50, CI
  EC50: 0.09 µg/mL
CHF patients; read-out: Post-hoc Mean EC50, DBP
  EC50: 0.154 µg/mL
CHF patients; read-out: Post-hoc Mean EC50, HR
  EC50: 0.198 µg/mL
CHF patients; read-out: Post-hoc Mean EC50, PCWP
  EC50: 0.0511 µg/mL
CHF patients; read-out: Post-hoc Mean EC50, SBP
  EC50: 0.047 µg/mL
CHF patients; baseline mean 2.21
  Post-hoc Mean Emax, CI: 1.15 L/m^2/min
CHF patients; baseline mean 20.8
  Post-hoc Mean Emax, PCWP: −7.8 mmHg
CHF patients; baseline mean 71
  Post-hoc Mean Emax, DBP: −13.3 mmHg
CHF patients; baseline mean 76
  Post-hoc Mean Emax, HR: 18 Bpm
CHF patients; baseline mean 118
  Post-hoc Mean Emax, SBP: −7.1 mmHg
[2]; after levosimendan administration
  Maintenance of beneficial hemodynamic and neurohormonal effects: up to two weeks
[2]; after starting the infusion
  Time of lowest echocardiographically estimated PCWP: 2 days
[2]; human, in vivo
  Day of lowest plasma NT-proANP level: 3 days
  Day of lowest plasma NT-proBNP level: 2 days
  Duration of treatment effect on NT-proANP, linear model: 16 days
  Duration of treatment effect on NT-proBNP, linear model: 12 days
  Time of highest CO value estimated by echocardiography: at the end of the 24-hour infusion
Unbound plasma fraction
  Unbound plasma fraction: 0.025
